US8143428B2, “Heteroaryl sulfones and sulfonamides and therapeutic uses thereof” (Temple University-Of The Commonwealth System of Higher …, priority 2004, dated 2012)

Tests used:
Assay type in all cases: cell-based
[1] = test system: estrogen receptor negative breast (BT20) cell line; assay: Growth of human tumor cells in culture, BT20 (Trypan blue exclusion); conditions: 96 h continuous treatment, viable cells by Trypan blue exclusion
Procedure: (§1) The effect of compounds according to Formula I on the growth of human tumor cells in culture was evaluated using androgen receptor negative prostate (DU145), colo-rectal (DLD-1), non-small cell lung carcinoma (H157), estrogen receptor negative breast (BT20) and chronic myeloid leukemia (K562) cell lines. All cell cultures were maintained at 37° C. in a humidified atmosphere of 5% CO2.
(§2) Cells were treated with compounds according to Formula I at five different concentrations (1-100 μM range) for each compound. The dose response of each cell line was established by determining the number of viable cells after 96 h of continuous treatment against each of the different test concentrations of each compound. The determination of viable cells was done by the by the Trypan blue exclusion method. Activity for each compound at each concentration is reported as a percentage of cells that remain viable.

[2] = test system: androgen receptor negative prostate (DU145) cell line; assay: Growth of human tumor cells in culture, DU145 (Trypan blue exclusion); conditions: 96 h continuous treatment, viable cells by Trypan blue exclusion
Procedure: as §1, §2

[3] = test system: non-small cell lung carcinoma (H157) cell line; assay: Growth of human tumor cells in culture, H157 (Trypan blue exclusion); conditions: viable cells by Trypan blue exclusion
Procedure: as §1, §2

[4] = test system: colo-rectal (DLD-1) cell line; assay: Growth of human tumor cells in culture, DLD-1 (Trypan blue exclusion); conditions: DLD-1 cells, 96 h continuous treatment, viable cells by Trypan blue exclusion
Procedure: as §1, §2

[5] = test system: chronic myeloid leukemia (K562) cell line; assay: Growth of human tumor cells in culture, K562 (Trypan blue exclusion); conditions: 96 h continuous treatment, viable cells by Trypan blue exclusion
Procedure: as §1, §2

JNK1 = molecular target: T1, JNK1 (Homo sapiens, UniProt P45983); assay: Activation of Jun kinase: JNK1 immunoprecipitated from treated BT-20 cells, phosphorylation of GST-c-Jun; conditions: 50 and 100 μM in DMSO, 12 hours at 37° C., compared to DMSO controls
T1 construct: JNK1 in 100 μg of cell lysate was immunoprecipitated; endogenous in cells; host or cells: BT-20 cells
Procedure: The compounds of Examples 1, 2, 7, 8 and 9 from Table 3 were analyzed for activation of the Jun kinase signaling pathway. The selected compounds were added to BT-20 cells at concentrations of 50 and 100 μM in dimethyl sulfoxide (DMSO) and incubated for 12 hours at 37° C. The cells were harvested and lysed after 12 hours of treatment. The cell lysates were then analyzed for c-Jun kinase activity by immunoprecipitating JNK1 and assessing the ability of these immunoprecipitates to phosphorylate GST-linked c-Jun. Lysis of the cells was performed after incubation with […], using the lysis buffer [25 mM N-2-hydroxyethylpiperazine-N′-2-ethanesulfonic acid (HEPES) (pH 7.6), 0.1% Triton, 300 mM NaCl, 20 mM β-glycerophosphate, 1.5 mM MgCl2, 0.2 mM ethylenediaminetetraacetic acid (EDTA), 0.5 mM dithiothreitol (DTT), 0.2 mM Na3VO4, 100 μM phenylmethylsulfonyl fluoride (PMSF), 1 mM benzamidine, 2 μg/mL leupeptin and 4 μg/mL aprotinin]. Protein concentrations were measured using Bio-Rad protein assay reagent. JNK1 in 100 μg of cell lysate was immunoprecipitated by incubating […] of lysate protein with […] of the JNK1 polyclonal antibody (Santa Cruz Biotechnology, Inc.,) for 1 h followed by an additional incubation with […] of protein A-Sepharose (Pharmacia) for 1 h. The immune complex bound protein A-Sepharose beads were washed twice with the lysis buffer and twice with JNK buffer (20 mM HEPES, pH 7.6, 20 mM β-glycerophosphate, 10 mM MgCl2 and […] Na3VO4. The kinase reaction was carried out by resuspending the complex bound protein A-Sepharose beads in […] of JNK buffer containing […] [γ-^32P]ATP (5000 CPM/pmol) and incubating them for 20 min at 30° C. using 5 mg GST-c-Jun as substrate. The reaction was terminated by the addition of Laemmli's buffer. The samples were then boiled for 3 min. The phosphorylated GST-c-Jun was then separated on 12% SDS-PAGE. Following the separation, the gel was dried, and an autoradiogram was developed which is reproduced in FIG. 1.

[6] = Homo sapiens, NCI-H157, 96 h continuous treatment

T1 sequence (P45983 whole entry): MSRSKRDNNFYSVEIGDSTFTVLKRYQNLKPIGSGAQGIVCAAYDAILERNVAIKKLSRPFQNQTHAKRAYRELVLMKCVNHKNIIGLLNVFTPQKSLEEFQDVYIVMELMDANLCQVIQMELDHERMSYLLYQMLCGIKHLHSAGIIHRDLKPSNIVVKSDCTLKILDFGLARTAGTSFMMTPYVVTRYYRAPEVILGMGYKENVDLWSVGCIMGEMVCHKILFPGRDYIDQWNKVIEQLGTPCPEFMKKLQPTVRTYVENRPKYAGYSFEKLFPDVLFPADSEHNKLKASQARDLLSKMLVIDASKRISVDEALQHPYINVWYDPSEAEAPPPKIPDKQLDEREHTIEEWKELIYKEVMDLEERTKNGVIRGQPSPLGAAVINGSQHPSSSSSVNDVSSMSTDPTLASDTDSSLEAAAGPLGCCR

GI50 ([1]; Homo sapiens, BT-20, 96 h) | GI50 ([2]; Homo sapiens, DU-145, 96 h) | GI50 [3, 6] | GI50 ([4]; Homo sapiens, DLD-1, 96 h) | GI50 ([5]; Homo sapiens, K562, 96 h) | c-Jun kinase activity: phosphorylation of GST-c-Jun by immunoprecipitated JNK1 (autoradiogram, FIG. 1) (JNK1) | GI50 [1] | GI50 [2] | GI50 ([3]; 96 h continuous treatment) | GI50 [4] | GI50 [5] | SMILES
18 µM | 25 µM | 32 µM | 38 µM | 27 µM | hyperphosphorylated | – | – | – | – | – | COc1ccc2oc(=O)c(S(=O)(=O)Nc3ccc(Br)cc3)cc2c1 [Example 7, N-(4-Bromophenyl)-6-methoxy-2-oxo-2H-chromene-3-sulfonamide]
17 µM | 14 µM | 16 µM | 18 µM | 11 µM | hyperphosphorylated | – | – | – | – | – | O=c1oc2c(Cl)cccc2cc1S(=O)(=O)Nc1ccc(Br)cc1 [Example 9, N-(4-Bromophenyl)-8-chloro-2-oxo-2H-chromene-3-sulfonamide]
16 µM | 15 µM | 18 µM | 20 µM | 14 µM | hyperphosphorylated | – | – | – | – | – | COc1ccc(NS(=O)(=O)c2cc3cc(Br)ccc3oc2=O)cc1 [Example 1, 6-Bromo-N-(4-methoxyphenyl)-2-oxo-2H-chromene-3-sulfonamide]
64 µM | 52 µM | 74 µM | 85 µM | 58 µM | hyperphosphorylated | – | – | – | – | – | CCOc1cccc2cc(S(=O)(=O)Nc3ccc(OC)cc3)c(=O)oc12 [Example 8, 8-Ethoxy-N-(4-methoxyphenyl)-2-oxo-2H-chromene-3-sulfonamide]
68 µM | 56 µM | 78 µM | 92 µM | 44 µM | – | – | – | – | – | – | COc1ccc2oc(=O)c(S(=O)(=O)Nc3ccc(F)c(N)c3)cc2c1 [Example 6, N-(3-Amino-4-fluorophenyl)-6-methoxy-2-oxo-2H-chromene-3-sulfonamide]
27 µM | 22 µM | 28 µM | 32 µM | 23 µM | hyperphosphorylated | – | – | – | – | – | COc1ccc(NS(=O)(=O)c2cc3cc(Cl)ccc3oc2=O)cc1 [Example 2, 6-Chloro-N-(4-methoxyphenyl)-2-oxo-2H-chromene-3-sulfonamide]

The next lines start with the compound.

SMILES | GI50 ([1]; Homo sapiens, BT-20, 96 h) | GI50 ([2]; Homo sapiens, DU-145, 96 h) | GI50 [3, 6] | GI50 ([4]; Homo sapiens, DLD-1, 96 h) | GI50 ([5]; Homo sapiens, K562, 96 h) | c-Jun kinase activity: phosphorylation of GST-c-Jun by immunoprecipitated JNK1 (autoradiogram, FIG. 1) (JNK1) | GI50 [1] | GI50 [2] | GI50 ([3]; 96 h continuous treatment) | GI50 [4] | GI50 [5]
O=c1oc2c(Br)cccc2cc1S(=O)(=O)Nc1ccc(Br)cc1 [Example 10, N-(4-Bromophenyl)-8-bromo-2-oxo-2H-chromene-3-sulfonamide] | 12 µM | 12 µM | 15 µM | 14 µM | 16 µM | – | – | – | – | – | –
CCOc1cccc2cc(S(=O)(=O)Nc3ccc(F)c(N)c3)c(=O)oc12 [Example 5, N-(3-Amino-4-fluorophenyl)-8-ethoxy-2-oxo-2H-chromene-3-sulfonamide] | 54 µM | 48 µM | 72 µM | 80 µM | 42 µM | – | – | – | – | – | –
CCOc1cccc2cc(S(=O)(=O)Nc3ccc(OC)cc3)c(=O)oc12 [Example 3, 8-Ethoxy-N-(4-methoxyphenyl)-2-oxo-2H-chromene-3-sulfonamide] | – | – | – | – | – | – | 52 µM | 57 µM | 74 µM | 78 µM | 48 µM
COc1ccc(NS(=O)(=O)c2cc3cc(Cl)ccc3oc2=O)cc1O [Example 4, 6-Chloro-N-(3-hydroxy-4-methoxyphenyl)-2-oxo-2H-chromene-3-sulfonamide] | 65 µM | 42 µM | 76 µM | 82 µM | 51 µM | – | – | – | – | – | –
